Measurements as given in patent US20090028925A1, “Novel Phosphinic Acid-Containing Thyromimetics” (priority 2005, published 2009).

Columns and labels:
[1] = Subacute study in cholesterol-fed rats, IP: heart weight and heart mGPDH activity
Protocol: The cholesterol-fed rat is an animal model of hypercholesterolemia generated by feeding the animals a diet with high cholesterol content.
Serum cholesterol values were assessed and the animals randomized into groups for treatment.

[2] = Continuous infusion study in rats on a cholesterol-containing diet; assay type: in vivo; conditions: continuous infusion 1 mg/kg/day
Protocol: Screening for thyromimetic activity was performed in normal rats maintained on a cholesterol-containing diet. Compounds were administered by continuous infusion using an osmotic pump at 1 mg/kg/day.

[3] = target: T1, human thyroid hormone receptors TRβ1 (Homo sapiens, UniProt P10828); assay: Receptor binding to TRβ1 (gel filtration and scintillation proximity assay, labeled T3); conditions: SPA data; read-out: Ki TRβ
T1 construct: made in house; host or cells: Sf9 insect cells (baculovirus)
T1 sequence (P10828 1-461): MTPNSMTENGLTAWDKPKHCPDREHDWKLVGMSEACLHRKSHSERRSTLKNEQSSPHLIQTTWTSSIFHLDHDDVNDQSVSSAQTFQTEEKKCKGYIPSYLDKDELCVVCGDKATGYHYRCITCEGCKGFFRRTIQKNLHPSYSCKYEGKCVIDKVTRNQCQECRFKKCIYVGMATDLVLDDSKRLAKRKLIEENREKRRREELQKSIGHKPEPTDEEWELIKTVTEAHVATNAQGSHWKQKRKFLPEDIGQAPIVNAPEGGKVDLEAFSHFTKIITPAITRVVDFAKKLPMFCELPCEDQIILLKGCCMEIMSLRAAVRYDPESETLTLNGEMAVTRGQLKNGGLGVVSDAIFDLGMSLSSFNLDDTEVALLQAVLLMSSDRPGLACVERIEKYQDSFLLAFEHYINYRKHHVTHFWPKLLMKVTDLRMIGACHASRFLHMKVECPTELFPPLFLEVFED
T1 sequence (P19793 1-462 partner): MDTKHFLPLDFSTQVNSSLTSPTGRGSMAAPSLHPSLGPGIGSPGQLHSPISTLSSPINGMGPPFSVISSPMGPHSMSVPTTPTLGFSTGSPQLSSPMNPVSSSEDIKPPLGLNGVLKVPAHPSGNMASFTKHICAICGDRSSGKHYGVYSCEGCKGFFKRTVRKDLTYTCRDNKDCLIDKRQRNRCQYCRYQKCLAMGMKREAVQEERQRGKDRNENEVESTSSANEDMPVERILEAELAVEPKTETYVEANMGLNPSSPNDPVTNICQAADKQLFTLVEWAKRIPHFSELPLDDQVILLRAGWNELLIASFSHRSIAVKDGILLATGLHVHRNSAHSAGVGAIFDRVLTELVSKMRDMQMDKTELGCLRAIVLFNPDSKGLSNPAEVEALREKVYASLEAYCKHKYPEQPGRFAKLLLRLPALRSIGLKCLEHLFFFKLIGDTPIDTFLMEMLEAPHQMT

liver triglycerides = assay: Hepatic triglyceride content and steatosis in ZDF rats, oral; assay type: in vivo; conditions: orally 28 days
Protocol: Normal rats were chronically infused with Compound 7 for 7 days. Liver triglycerides were analyzed following lipid extraction by the Bligh Dyer method (Bligh E G and Dyer W J, A rapid method of total lipid extraction and purification. Can J Med. Sci. 1959 (August); 37(8):911-7, incorporated herein by reference). Total triglycerides were analyzed in the liver extracts by an enzymatic assay (Thermo Electron Corporation). Total lipid was normalized to initial liver weight and triglyceride content was normalized to liver weight. […] There was a 4% reduction in liver triglycerides for this group and the results were not statistically significant.
In other experiments, Compound 7 was orally administered to ZDF rats for 28 days. Liver triglycerides were analyzed as described above. Total liver triglycerides were reduced in the treated animals 42% in the 2.5 mg/kg/d group. […] The hepatic steatosis is a well known and described phenomenon for the ZDF rat, and therefore not attributable to vehicle treatment.

heart mGPDH activity = assay: Subacute study in normal rats, continuous infusion: heart mGPDH activity; assay type: in vivo, rats (Sprague-Dawley); conditions: continuous infusion 1 mg/kg/day
Source text: Efficacy endpoints include serum cholesterol, liver mitochondrial glycerol phosphate dehydrogenase (mGPDH) activity and the expression of relevant liver genes (e.g., the LDL-receptor, apoB, cpt-1, spot14 and apoAI). Safety parameters include heart weight, heart rate, heart mGPDH activity, the expression and key genes involved in cardiac structure and function (e.g., Serca2, HCN2, Kv1.5, MHCα, MHCβ, Alpha1c), and standard plasma chemistry analysis (liver enzymes, electrolytes, creatinine). Endocrine effects are monitored by analysis of serum thyroid stimulating hormone (TSH). [Taylor et al., Mol Pharmacol 52(3): 542-7 (1997); Weitzel et al., Eur J Biochem 268(14):4095-4103 (2001)]
Methods: mGPDH activity was analyzed in isolated mitochondria using 2-(4-iodophenyl)-3-(4-nitrophenyl)-5-phenyl tetrazolium chloride as the terminal electron acceptor (Gardner R S, Analytical Biochemistry 59:272 (1974)). Commercially available GPDH was used in each assay as a standard (Sigma, St. Louis, Mo.). Changes in levels of mRNA for liver and heart genes are analyzed using reverse transcriptase followed by real-time PCR analysis. The analysis is performed using an iCycler instrument (Biorad) and appropriate primers by means of standard methodology [e.g., Schwab D A et al. (2000) Life Sciences 66: 1683-94]. The amounts of mRNA are normalized to an internal control, typically, cyclophilin. Serum TSH is measured using an enzyme immunoassay (EIA) kit designed for rat TSH (Amersham Pharmacia Biotech, Arlington Heights, Ill.).
Normal rats (Sprague-Dawley) were maintained on a standard diet. […] The compounds were brought up to an appropriate volume using PBS and BSA to maintain solubility within the pump. The compounds were chemically stable in the excipient at 37° C. for 7 days.
Values are expressed as percent of control. (Table 4)

Cc1cc(OCP(=O)(O)O)cc(C)c1Cc1ccc(O)c(C(C)C)c1 [Compound 7, [3,5-dimethyl-4-(4′-hydroxy-3′-iso-propylbenzyl)phenoxy]methylphosphonic acid]
cardiac hypertrophy ([1]; IP once-a-day for seven days): No cardiac hypertrophy was observed
therapeutic window between efficacy (cholesterol lowering) and toxicity (cardiac hypertrophy, heart GPDH) ([1]; IP seven days): 10- to 100 fold
heart GPDH activity ([1]; IP, 100 mg/kg): trend towards increased heart GPDH activity
adverse cardiac effects ([1]; IP, any dose): No adverse cardiac effects were observed
cholesterol lowering effects ([2]; day 7 and day 14): demonstrated cholesterol lowering effects
cardiovascular parameters (heart rate, LV dP/dt, systolic and diastolic blood pressure) ([2]; day 7 or day 14): no changes in any of the cardiovascular parameters
Ki [3]: 3.3 nM
microvesicular steatosis, histologic analysis of liver sections (liver triglycerides): dose dependent reduction in the microvesicular steatosis
Heart GPDH (heart mGPDH activity): 112% of control
